According to patent US7935670B2, “Hepatitis C virus inhibitors” (Bristol-Myers Squibb Company, priority 2006, dated 2011):

What was measured:
[1] = target: T1, HCV NS3/4A protease complex, H77 strain (Hepatitis C virus genotype 1a, UniProt P27958, C1454S/C1711G); test: FRET peptide assay to monitor HCV NS3/4A proteolytic activity (H77 strain); assay type: biochemical, HCV genotype 1a
T1 construct: DNA encoding the recombinant HCV NS3/4A protease complex (amino acids 1027 to 1711) for these strains; His tag (inferred from pET21b vector and Ni-NTA purification); made in house; host or cells: Escherichia coli BL21 (DE3), pET21b
T1 sequence (P27958 1027-1711 C1454S/C1711G, one chain of several): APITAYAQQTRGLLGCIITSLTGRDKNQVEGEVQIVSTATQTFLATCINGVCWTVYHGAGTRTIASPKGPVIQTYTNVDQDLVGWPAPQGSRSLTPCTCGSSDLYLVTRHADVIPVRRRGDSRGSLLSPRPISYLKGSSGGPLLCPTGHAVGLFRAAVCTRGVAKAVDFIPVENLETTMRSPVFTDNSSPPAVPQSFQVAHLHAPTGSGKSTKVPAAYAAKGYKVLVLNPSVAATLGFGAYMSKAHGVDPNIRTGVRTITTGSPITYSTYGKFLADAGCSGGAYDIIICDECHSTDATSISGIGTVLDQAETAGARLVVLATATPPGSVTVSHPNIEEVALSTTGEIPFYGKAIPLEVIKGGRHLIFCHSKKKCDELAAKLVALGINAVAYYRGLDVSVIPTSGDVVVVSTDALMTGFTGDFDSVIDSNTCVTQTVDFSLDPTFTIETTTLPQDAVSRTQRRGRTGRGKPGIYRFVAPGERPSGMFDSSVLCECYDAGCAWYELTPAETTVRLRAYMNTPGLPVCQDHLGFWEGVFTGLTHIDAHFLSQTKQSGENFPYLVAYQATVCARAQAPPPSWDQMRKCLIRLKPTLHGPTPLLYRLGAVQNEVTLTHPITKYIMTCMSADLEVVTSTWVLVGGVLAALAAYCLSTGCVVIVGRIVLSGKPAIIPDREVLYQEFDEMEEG
Excerpt: (§1) HCV NS3 protease complexes, derived from the BMS strain, H77 strain or J4L6S strain, were generated, as described below. These purified recombinant proteins were generated for use in a homogeneous assay (see below) to provide an indication of how effective compounds of the present disclosure would be in inhibiting HCV NS3 proteolytic activity.
(§2) Serum from an HCV-infected patient was obtained from Dr. T. Wright, San Francisco Hospital. An engineered full-length cDNA (compliment deoxyribonucleic acid) template of the HCV genome (BMS strain) was constructed from DNA fragments obtained by reverse transcription-PCR(RT-PCR) of serum RNA (ribonucleic acid) and using primers selected on the basis of homology between other genotype 1a strains. From the determination of the entire genome sequence, a genotype 1a was assigned to the HCV isolate according to the classification of Simmonds et al. (See P Simmonds, K A Rose, S Graham, S W Chan, F McOmish, B C Dow, E A Follett, P L Yap and H Marsden, J. Clin. Microbiol., 31(6), 1493-1503 (1993)). […]

[2] = system: HCV replicon (Renilla luciferase reporter) in HUH-7 cells; test: HCV replicon luciferase reporter assay; assay type: cell-based, HCV strain 1b; conditions: Huh-7, 96 h, 4 days
[3] = target: T2, HCV NS3/4A protease complex, J4L6S strain (Hepatitis C virus genotype 1b, UniProt O92972, C1454S/C1711G); test: FRET peptide assay to monitor HCV NS3/4A proteolytic activity (J4L6S strain); assay type: biochemical, HCV genotype 1b
T2 construct: DNA encoding the recombinant HCV NS3/4A protease complex (amino acids 1027 to 1711) for these strains; His tag (inferred from pET21b vector and Ni-NTA purification); made in house; host or cells: Escherichia coli BL21 (DE3), pET21b
T2 sequence (O92972 1027-1711 C1454S/C1711G, one chain of several): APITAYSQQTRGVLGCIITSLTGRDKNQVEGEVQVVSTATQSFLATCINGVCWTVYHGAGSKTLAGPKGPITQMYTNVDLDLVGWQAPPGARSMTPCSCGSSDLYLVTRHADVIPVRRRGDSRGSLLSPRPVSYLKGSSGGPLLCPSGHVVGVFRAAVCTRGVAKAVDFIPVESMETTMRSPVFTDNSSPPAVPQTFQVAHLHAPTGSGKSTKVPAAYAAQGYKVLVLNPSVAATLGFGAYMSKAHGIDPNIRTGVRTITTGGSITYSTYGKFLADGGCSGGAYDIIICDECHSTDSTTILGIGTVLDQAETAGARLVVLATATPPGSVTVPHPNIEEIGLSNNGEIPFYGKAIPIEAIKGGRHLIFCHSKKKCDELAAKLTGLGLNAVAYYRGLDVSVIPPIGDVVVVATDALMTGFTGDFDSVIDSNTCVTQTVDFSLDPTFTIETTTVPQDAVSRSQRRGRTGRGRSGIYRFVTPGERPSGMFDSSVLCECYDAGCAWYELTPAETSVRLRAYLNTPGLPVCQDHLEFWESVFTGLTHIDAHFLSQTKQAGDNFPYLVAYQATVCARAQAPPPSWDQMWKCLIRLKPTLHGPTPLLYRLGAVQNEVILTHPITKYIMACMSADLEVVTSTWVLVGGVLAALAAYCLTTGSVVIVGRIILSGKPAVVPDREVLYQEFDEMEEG
Excerpt: as §1, §2

[4] = system: human pancreatic chymotrypsin; test: Specificity assay, chymotrypsin; assay type: biochemical; conditions: 2 h enzyme-inhibitor pre-incubation
Protocol: The specificities of compounds of the present disclosure were determined against a variety of serine proteases: human neutrophil elastase (HNE), porcine pancreatic elastase (PPE) and human pancreatic chymotrypsin and one cysteine protease: human liver cathepsin B. In all cases a 96-well plate format protocol using colorimetric p-nitroaniline (pNA) substrate specific for each enzyme was used as described previously (PCT Patent Application No. WO 00/09543) with some modifications to the serine protease assays. All enzymes were purchased from Sigma while the substrates were from Bachem.
Each assay included a 2 h enzyme-inhibitor pre-incubation at room temperature followed by addition of substrate and hydrolysis to ˜30% conversion as measured on a Spectramax Pro microplate reader. Compound concentrations varied from 100 to 0.4 μM depending on their potency.
50 mM Tris(hydroxymethyl)aminomethane hydrochloride (Tris-HCl) pH 8, 0.5 M Sodium Sulfate (Na2SO4), 50 mM NaCl, 0.1 mM EDTA, 3% DMSO, 0.01% Tween-20 with:
133 μM succ-AAA-pNA and 20 nM HNE or 8 nM PPE; 100 μM succ-AAPF-pNA and […] Chymotrypsin.
The percentage of inhibition was calculated using the formula: [1−((UVinh−UVblank)/(UVctl−UVblank))]×100
A non-linear curve fit was applied to the inhibition-concentration data, and the 50% effective concentration (IC50) was calculated by the use of Excel Xl-fit software.

C=C[C@@H]1C[C@]1(NC(=O)[C@@H]1C[C@@H](OC(=O)c2ccccc2)CN1C(=O)[C@@H](NC(=O)OC(C)(C)C)C(C)(C)C)C(=O)NS(=O)(=O)C1CC1 [Compound 1]
IC50 [1]: 6 nM
EC50 [2]: 51 nM
IC50 [3]: 2.5 nM
IC50 [4]: > 200000 nM
